What all share (assay type): biochemical
The target of one assay is T1, CYP17 (Rattus norvegicus, UniProt P11715).
T1 construct: using rat and dog testis microsomes and ELISA kits from commercial vendors; from tissue; host or cells: rat testis microsomes
T1 sequence (P11715 1-507): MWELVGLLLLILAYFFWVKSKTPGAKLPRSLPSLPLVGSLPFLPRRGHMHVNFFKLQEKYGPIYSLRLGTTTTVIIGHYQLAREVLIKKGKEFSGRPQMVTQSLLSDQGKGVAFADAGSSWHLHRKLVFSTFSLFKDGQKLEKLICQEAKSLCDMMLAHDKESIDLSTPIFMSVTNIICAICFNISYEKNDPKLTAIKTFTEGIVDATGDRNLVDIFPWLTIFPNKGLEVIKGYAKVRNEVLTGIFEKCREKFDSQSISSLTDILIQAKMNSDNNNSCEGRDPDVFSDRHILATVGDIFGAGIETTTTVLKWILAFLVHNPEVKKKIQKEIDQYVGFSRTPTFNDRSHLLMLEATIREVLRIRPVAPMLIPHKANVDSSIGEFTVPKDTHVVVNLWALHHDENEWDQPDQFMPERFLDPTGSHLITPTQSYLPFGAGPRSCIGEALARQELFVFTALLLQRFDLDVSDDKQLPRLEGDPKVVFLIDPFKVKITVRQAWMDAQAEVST
The experiment in a line: CYP17 inhibition: 17α hydroxylase and C17,20 lyase activity in testis microsomes, ELISA detection. The note with it: for IC50: which microsome assay (rat or dog testis) not specified. As for the experimental part: Serum Testosterone and PSA and Tumor Testosterone Analysis. Tumor tissue obtained from mice will be homogenized in phosphate buffer (pH 7.4, 0.1 M) and homogenates centrifuged at 2000 g for 20 min. Testosterone concentrations in the serum and in the clear tissue homogenate supernatant will be determined with the ELISA kit from R&D Systems (Catalog # KGR010). Serum PSA concentrations will be measured using a PSA ELISA kit with a serum dilution according to the manufacturers instructions. • c. Breast cancer. To test the efficacy of compounds embodied herein against breast cancer, nude mice carrying human breast cancer lines that are estrogen receptor and Aromatase positive will be used. Cells will be grown in vitro and 2 million will be inoculated in Matrigel (50:50 volume ratio of cells to Matrigel). Cells will be distributed by s.c. injection at the right and left flanks or at the orthotopic sitest in 6 to 8 week old athymic nude mice (BALB/c strain) or severe combined immunodeficient mice under anesthesia. Animals will be treated with compound for 4 weeks, at which point animals will be sacrificed and collect blood samples and tumor tissue for the determination of serum and tumor estrogen levels. Tumors will be excised and a portion will be fixed in formalin for subsequent histochemical and immuno-histochemical analysis. The remainder will be snap frozen in liquid nitrogen and stored at −80° C. • 12. CYP26 inhibition activity. […] The assay is run in a 100 μL reaction volume and stopped with an equal volume of methanol. […] CYP17 inhibition assay: In vitro assays for CYP17 17α-hydroxylase and C17,20-lyase activity, assays using rat and dog testis microsomes and ELISA kits from commercial vendors for the detection of formed products are employed. […] Assays are also used that determine the activity of 17α-hydroxylase activity using P4 as a substrate and detecting HOP4 as a product (using dog testis microsomes) and the activity of C17,20-lyase by using HOP4 as a substrate and AD as a product (rat testis microsomes). • 14.
CYP17 inhibition. In vitro assays for CYP17 17α hydroxylase and C17,20 lyase activity using rat and dog testis microsomes and ELISA kits from commercial vendors for the detection of formed products were employed. […] Assays were also used that determine the activity of 17α hydroxylase activity using P4 as a substrate and detecting HOP4 as a product (using dog testis microsomes) and the activity of C17,20 lyase by using HOP4 as a substrate and AD as a product (rat testis microsomes).
A general note: An ELISA detects its analyte on a solid surface through an enzyme-linked reagent.

In another assay the target is T2, CYP19 (Homo sapiens, UniProt P11511).
T2 construct: purchased BD Gentest 456260
T2 sequence (P11511 1-503): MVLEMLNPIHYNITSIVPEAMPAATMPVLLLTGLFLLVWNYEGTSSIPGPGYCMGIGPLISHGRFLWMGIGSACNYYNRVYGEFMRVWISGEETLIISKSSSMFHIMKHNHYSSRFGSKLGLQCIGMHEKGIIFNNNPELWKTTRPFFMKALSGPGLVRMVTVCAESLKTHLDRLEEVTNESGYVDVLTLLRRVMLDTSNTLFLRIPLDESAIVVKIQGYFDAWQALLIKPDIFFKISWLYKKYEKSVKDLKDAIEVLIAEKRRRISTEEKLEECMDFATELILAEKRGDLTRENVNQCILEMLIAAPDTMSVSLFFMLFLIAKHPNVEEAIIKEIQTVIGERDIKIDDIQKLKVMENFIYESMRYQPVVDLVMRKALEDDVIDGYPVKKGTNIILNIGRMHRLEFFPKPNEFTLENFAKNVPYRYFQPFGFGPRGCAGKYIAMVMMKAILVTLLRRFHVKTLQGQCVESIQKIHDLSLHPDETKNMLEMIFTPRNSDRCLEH
Kind of assay: CYP19 inhibition: commercially available recombinant enzyme and assay kit. As for the experimental part:
(§1) Serum Testosterone and PSA and Tumor Testosterone Analysis. Tumor tissue obtained from mice will be homogenized in phosphate buffer (pH 7.4, 0.1 M) and homogenates centrifuged at 2000 g for 20 min. Testosterone concentrations in the serum and in the clear tissue homogenate supernatant will be determined with the ELISA kit from R&D Systems (Catalog # KGR010). Serum PSA concentrations will be measured using a PSA ELISA kit with a serum dilution according to the manufacturers instructions. • c. Breast cancer. To test the efficacy of compounds embodied herein against breast cancer, nude mice carrying human breast cancer lines that are estrogen receptor and Aromatase positive will be used. Cells will be grown in vitro and 2 million will be inoculated in Matrigel (50:50 volume ratio of cells to Matrigel). Cells will be distributed by s.c. injection at the right and left flanks or at the orthotopic sitest in 6 to 8 week old athymic nude mice (BALB/c strain) or severe combined immunodeficient mice under anesthesia. Animals will be treated with compound for 4 weeks, at which point animals will be sacrificed and collect blood samples and tumor tissue for the determination of serum and tumor estrogen levels. Tumors will be excised and a portion will be fixed in formalin for subsequent histochemical and immuno-histochemical analysis. The remainder will be snap frozen in liquid nitrogen and stored at −80° C. • 12. CYP26 inhibition activity. A substrate depletion assay for ATRA metabolism in mouse microsomes is used. […] The assay is run in a 100 μL reaction volume and stopped with an equal volume of methanol. […] CYP17 inhibition assay: In vitro assays for CYP17 17α-hydroxylase and C17,20-lyase activity, assays using rat and dog testis microsomes and ELISA kits from commercial vendors for the detection of formed products are employed. Incubation of rat testis microsomes with the substrate progesterone (P4) results, through the CYP17 17α-hydroxylase and C17,20-lyase activities, in a marked production of androstenedione (AD) in a time and enzyme-concentration dependent manner. […] In another control, microsomes isolated from rat livers, which are known to express very little or no CYP17, are shown to be devoid of this activity. Assays are also used that determine the activity of 17α-hydroxylase activity using P4 as a substrate and detecting HOP4 as a product (using dog testis microsomes) and the activity of C17,20-lyase by using HOP4 as a substrate and AD as a product (rat testis microsomes). • 14. CYP19 inhibition assay: For in vitro assays of CYP19 aromatase activity, commercially available CYP19 enzyme preparations (e.g. BD Gentest Supersomes Catalog #456260) and assay kits (e.g. BD Gentest Catalog #459520) are employed according to the manufacturers instructions.
Selectivity for other P450 enzymes. To assess the selectivity of compounds embodied herein, activity was evaluated first against CYP3A4 and CYP19 using commercially available recombinant enzymes and assay kits. To calculate a selectivity factor, the IC50 for a particular P450 enzyme was divided by the IC50 in the CYP17 combination assay.

In a further assay the target is T3, CYP26 (Mus musculus, UniProt O55127).
T3 construct: tissue Xenotech; host or cells: liver microsomes of ATRA-treated mice
T3 sequence (O55127 1-497): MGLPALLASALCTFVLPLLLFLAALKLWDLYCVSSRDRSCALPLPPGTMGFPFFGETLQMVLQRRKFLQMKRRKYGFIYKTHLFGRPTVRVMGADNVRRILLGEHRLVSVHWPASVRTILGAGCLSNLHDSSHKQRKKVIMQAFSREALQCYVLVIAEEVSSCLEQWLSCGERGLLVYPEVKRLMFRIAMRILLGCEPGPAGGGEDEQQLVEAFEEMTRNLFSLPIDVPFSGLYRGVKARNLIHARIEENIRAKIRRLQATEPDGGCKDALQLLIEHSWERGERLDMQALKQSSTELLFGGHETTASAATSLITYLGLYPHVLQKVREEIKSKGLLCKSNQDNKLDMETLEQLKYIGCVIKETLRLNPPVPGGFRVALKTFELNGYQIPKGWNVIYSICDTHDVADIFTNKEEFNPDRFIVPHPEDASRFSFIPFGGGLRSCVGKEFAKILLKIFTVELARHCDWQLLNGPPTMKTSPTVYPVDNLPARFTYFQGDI
Kind of assay: CYP26 inhibition: substrate depletion assay for ATRA metabolism in mouse microsomes. The protocol:
as §1
CYP26 inhibition. […] The assay was run in a 100 μL reaction volume and stopped with an equal volume of methanol. […] Other compounds of formula (I) are similarly potent, for example with an IC50 of 1.6 nM.

The IC50 is the concentration that inhibits the measured activity by half.

The structures appear in SMILES notation.

In the case of `CCC(C(c1ccc2nc(C(=N)OC)sc2c1)n1ccnc1)N(C)C` (stereo not shown) [Example 13, Methyl 6-(2-(dimethylamino)-1-(1H-imidazol-1-yl)butyl)benzo[d]thiazole-2-carbimidate], the figures for the IC50 against CYP17 and on CYP19 were below 5 µM and below 1 µM, respectively.
For the molecule `CCC(C(c1ccc2nc(NC(C)=O)sc2c1)n1ccnc1)N(C)CC` (stereo not shown) [Example 9, N-(6-(2-(Ethyl(methyl)amino)-1-(1H-imidazol-1-yl)butyl)benzo[d]thiazol-2-yl)acetamide], the IC50 is below 5 µM against CYP17 and below 1 µM on CYP19.
For `CCC(CC)C(c1ccc2nc(Br)sc2c1)n1ccnc1` (stereo not shown) [Example 28, 2-bromo-6-(2-ethyl-1-(1H-imidazol-1-yl)butyl)benzo[d]thiazole] the same measures were below 5 µM and below 1 µM.
For `CCC(C(c1ccc2nc(Br)sc2c1)n1ccnc1)N(C)CC` (stereo not shown) [Example 36, 1-(2-Bromobenzo[d]thiazol-6-yl)-N-ethyl-1-(1H-imidazol-1-yl)-N-methylbutan-2-amine] the same measures were below 5 µM and below 1 µM.
For `CCC(C(c1ccc2nc(C(N)=O)sc2c1)n1ccnc1)N(C)C` (stereo not shown) [Example 14, 6-(2-(Dimethylamino)-1-(1H-imidazol-1-yl)butyl)benzo[d]thiazole-2-carboxamide] the same measures were below 5 µM and below 1 µM.
Turning to `CCC(C(c1ccc2ncsc2c1)n1ccnc1)N(C)C` (stereo not shown) [Example 15, 1-(Benzo[d]thiazol-6-yl)-1-(1H-imidazol-1-yl)-N,N-dimethylbutan-2-amine], the figures for the IC50 against CYP17 and on CYP19 were below 5 µM and below 1 µM, respectively.
For `CCC(C(c1ccc2nc(C(=O)OC)sc2c1)n1ccnc1)N(C)C` (stereo not shown) [Example 12, Methyl 6-(2-(dimethylamino)-1-(1H-imidazol-1-yl)butyl)benzo[d]thiazole-2-carboxylate] the same measures were below 5 µM and below 1 µM.
On to `CCC(CC)C(c1ccc2nc(N)sc2c1)n1ccnc1` (stereo not shown) [Example 27, 6-(2-Ethyl-1-(1H-imidazol-1-yl)butyl)benzo[d]thiazol-2-amine], for which the values for the IC50 on CYP17 and on CYP19 were below 5 µM and below 1 µM, respectively.
In the case of `CC(=O)O[C@H]1CC[C@@]2(C)C(=CC[C@@H]3[C@@H]2CC[C@]2(C)C(c4cccnc4)=CC[C@@H]32)C1` [abiraterone acetate, reference compound], the “Inhibition of androstenedione (AD) production from progesterone (P4)” value at CYP17 (rat testis microsomes, 17α hydroxylase and C17,20 lyase activities) was “completely inhibited”.
`CCC(C(c1ccc2nc(-c3ccc(C(=O)O)cc3)sc2c1)n1ccnc1)N(C)CC` (stereo not shown) [Example 58, 4-(6-(2-(Ethyl(methyl)amino)-1-(1H-imidazol-1-yl)butyl)benzo[d]thiazol-2-yl)benzoic acid] had an IC50 against CYP26 below 1 µM.
The same measure, in the same setting: in the case of `CCC(C(c1ccc2nc(NC(=O)C3CC4CCC3C4)sc2c1)n1ccnc1)N(C)C` (stereo not shown) [Example 52, N-(6-(-2-(dimethylamino)-1-(1H-imidazol-1-yl)butyl)benzo[d]thiazol-2-yl)bicyclo[2.2.1]heptane-2-carboxamide] it was below 1 µM; in that of `CCC(C(c1ccc2nc(-c3cc(C(=O)O)cc(C(F)(F)F)c3)sc2c1)n1ccnc1)N(C)C` (stereo not shown) [Example 70, 3-(6-(2-(Dimethylamino)-1-(1H-imidazol-1-yl)butyl)benzo[d]thiazol-2-yl)-5-(trifluoromethyl)benzoic acid], below 1 µM; in that of `CCC(C(c1ccc2nc(Oc3cccc(C(=O)O)c3)sc2c1)n1ccnc1)N(C)C` (stereo not shown) [Example 54, 3-((6-(2-(Dimethylamino)-1-(1H-imidazol-1-yl)butyl)benzo[d]thiazol-2-yl)oxy)benzoic acid], below 1 µM.
Turning to `CCC(C(c1ccc2nc(-c3ccc(C(=O)O)c(Cl)c3)sc2c1)n1ccnc1)N(C)C` (stereo not shown) [Example 62, 2-Chloro-4-(6-(2-(dimethylamino)-1-(1H-imidazol-1-yl)butyl)benzo[d]thiazol-2-yl)benzoic acid], the IC50 at CYP26 is below 1 µM.

The values are drawn from patent publication US10414760B2, “Cytochrome P450 inhibitors and uses thereof” (ANGION BIOMEDICA CORP., priority 2016, dated 2019).
